“Also recorded” adds a separate entry of the source.
Key:
[1] = test system: MCF-7 human breast carcinoma cells; assay: microbubble attachment to cells, parallel plate flow chamber; type: cell-based; conditions: 400×
Experimental: MCF-7 human breast carcinoma cells (ATCC, Manassas, Va.) were grown on sterile glass cover slips (40 mm) and incubated at 37° C. until they reached 40-60% confluency in a 5% fetal bovine serum/RPMI1640 medium solution.
(§1) To create biotinylated microbubbles, the synthesized biotin-bleomycin A5 ligand was conjugated to Targestar^B Targeted Ultrasound Contrast Agent (Targeson). Four hundred microliters of Coupling Reagent (Targeson) were added to 1.5 mL of conjugated Targestar^B microbubbles and incubated for 20 min at room temperature, with gentle agitation every 5 min. The product was divided into two syringes, rinsed with 1.75 mL of Infusion Buffer, and then centrifuged for 3 min at 400×g (10° C.). The infranatant was then drained to 1 mL. Fifty μL of biotinylated bleomycin A5 was added to one of the vials and both were incubated at room temperature for 20 min with gentle agitation every 5 min. To each sample was added 1.75 mL of Infusion Buffer before centrifugation for 3 min at 400×g (10° C.). This solution was then drained to 1.0 mL before recovery of the supernatant and repetition of the previous step. Finally, the supernatant was resuspended in Infusion Buffer to a final volume of 2.0 mL.
Attachment of the biotinylated microbubble to the cultured MCF-7 breast cancer cells was imaged using an inverted microscope Zeiss Axiovert 200M fitted with an AxioCam MRm camera. Adherent cancer cells on glass cover slips were assembled into a parallel plate flow chamber (Bioptechs FCS2, Micro-Environmental Systems) with a constant temperature maintained at 37° C. The prepared solution of biotinylated microbubbles was introduced into the parallel plate flow chamber via ⅛-inch diameter tubing (Silastic) at a controlled rate of 0.01 mL/min using an adjustable infusion-withdrawal syringe pump (Harvard Apparatus, Holliston, Mass.). A negative control experiment was performed using a preparation of Targestar^B microbubbles without any added biotin-bleomycin A5 ligand. ‘Normal’ human breast MCF-10A cells were used as well for comparison purposes. […]

[2] = test system: MCF-10A 'normal' human breast cells; assay: as above; type: cell-based; conditions: MCF-10A 'normal' breast cells; 400×; FIGS. 5, 9-11
Experimental: as §1
Attachment of the biotinylated microbubble to the cultured MCF-7 breast cancer cells was imaged using an inverted microscope Zeiss Axiovert 200M fitted with an AxioCam MRm camera. Adherent cancer cells on glass cover slips were assembled into a parallel plate flow chamber (Bioptechs FCS2, Micro-Environmental Systems) with a constant temperature maintained at 37° C. […]

Row | Substance | Targestar B microbubble attachment to cells (microscopy, in words) ([1]; FIGS. 3, 4, 6-8, listed as biotinylated BLM A5) | Targestar B microbubble attachment to cells (microscopy, in words) ([1]; FIGS. 3, 4, 6-8, listed as biotinylated bleomycin) | Targestar B microbubble attachment to cells (microscopy, in words) [2] | Targestar B microbubble attachment to cells (microscopy, in words) ([1]; FIGS. 3, 4, 6-8)
1 | biotinylated bleomycin A5 [Biotinylated BLM A5] | selective attachment | did promote attachment | attachment was not observed | –
2 | biotinylated deglycobleomycin A5 | – | – | does not promote Targestar B microbubble attachment; also recorded: lack of attachment | does not promote Targestar B microbubble attachment; also recorded: did not reveal the presence of microbubbles attached
